Results: PubChem BioAssay AID743417 (Broad Institute, 2014)
Records with an inconclusive call do not appear. Activity calls are given as the source filed them.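 The calls were made as follows: active = compounds lowering the luciferase signal with a fitted half-maximal dose at most twice their top valid dose (cut at about 30 µM in these data); inconclusive = flat fits with moderate signal loss, or poor fits; inactive = the rest.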

Tested on: Clone20 osteoblast Shn3 3'UTR firefly luciferase, 24 h
Experiment: Shn3 3'UTR reporter inhibitors, dose response, cell-based, Clone20 osteoblasts, luminescence, dry powder, set 2 (AID 743417)

| Structure (SMILES) | AC50 |
| --- | --- |
| O=C(c1cc(COc2c(F)cccc2F)on1)N1CCC(c2ccncc2)CC1 | 1.6 µM |
| COc1cc(OC)c(OC)cc1CCC(C)NCCC(c1ccccc1)c1ccccc1 (stereo unspecified) | 3.99 µM |
| O=S(=O)(c1ccc2c(c1)OCCO2)N1CCN(c2ncnc3sccc23)CC1 | 1.45 µM |
| O=C(Nc1ccc2nc3n(c(=O)c2c1)CCCC3)c1cc([N+](=O)[O-])ccc1F | 0.361 µM |
| CC(=O)NC(c1cc(Cl)c2cccnc2c1O)C(C)C (stereo unspecified) | 2.96 µM |
| C=C1C(=O)OC2CC1C(OC(C)=O)CC(C)=CCCC(C)=CCCC2(C)O (stereo unspecified) | 0.91 µM |
| Cc1cccc(Oc2cc(NC(=O)c3ccccc3)cc([N+](=O)[O-])c2)c1 | 3.09 µM |
| COc1ccc(-n2nnnc2S(=O)(=O)CC(=O)N2CCCCC2)cc1 | 5.44 µM |
| Cc1ccc2c(c1)c(C1=c3ccccc3=NC1=O)c(O)n2C | 8.85 µM |
| CC(C)(C)c1ccc(CN(Cc2ccccc2)C(c2ccccn2)c2nnnn2C(C)(C)C)cc1 (stereo unspecified) | 13.5 µM |
| COc1ccccc1N1CCN(c2ncc(C(=O)N3CCN(c4cccc(Cl)c4)CC3)c3ccccc23)CC1 | 0.572 µM |
| Nc1cc2c(cc1Br)[nH]c(=O)c1ccccc12 | 5.46 µM |
| CN(C)c1ccc(/C=C/c2nc3ccccc3s2)cc1 | 0.494 µM |
| CCOC(=O)c1sc(NC(=O)CCCn2nc([N+](=O)[O-])c(Cl)c2C)c(C(=O)OCC)c1C | 6.34 µM |
| C=C1C(=O)OC2CC3(C)OC3C3OC3C3=CC(OC3=O)C12 (stereo unspecified) | 1.45 µM |
| CCCN1C(=O)S/C(=C\c2ccc(N3CCOCC3)o2)C1=O | 6.37 µM |
| O=[N+]([O-])c1c(NCCCO)cc(Sc2ccc(Cl)cc2)c2nonc12 | 5.63 µM |
| CC(C)CC(=O)NC(=S)Nc1ccc(N2CCN(C(=O)c3cccs3)CC2)cc1 | 2.54 µM |
| O=c1c2ccccc2cnn1-c1nc2ccccc2[nH]1 | 1.33 µM |
| Oc1cccc(C(Nc2nccs2)c2ccc3cccnc3c2O)c1 (stereo unspecified) | 1.67 µM |
| O=C(Nc1ccc(Br)cc1)c1ccc(F)c(S(=O)(=O)NCc2cccs2)c1 | 3.05 µM |
| Cc1ccn2cc(-c3ccc(O)c(O)c3)nc2c1 | 2.44 µM |

| Structure (SMILES) | AC50 |
| --- | --- |
| CCc1ccc(NC(=O)c2nc(S(=O)(=O)Cc3ccccc3)ncc2Cl)cc1 | 0.551 µM |
| CCOC(=O)c1cccc(NC2c3ccccc3C(=O)N2Cc2ccco2)c1 (stereo unspecified) | 4.26 µM |
| CC1CC(C)(C)CC2(C1)NC(=O)N(CC(=O)N1CCN(Cc3ccc(C#N)cc3)CC1)C2=O (stereo unspecified) | 1.47 µM |
| Oc1cc(Nc2cccnc2)cc2cccnc12 | 2.12 µM |
| CC(=O)Nc1cccc(NC(=O)CSc2ncc(-c3ccc(Cl)cc3)n2Cc2ccco2)c1 | 4.95 µM |
| CSc1nc(N2CCN(Cc3ccc4c(c3)OCO4)CC2)c2ccccc2n1 | 24.1 µM |
| O=C(Nc1nc(-c2ccccn2)cs1)c1ccccc1-n1cnnn1 | 1.71 µM |
| C=CCn1c(-c2ccc(S(=O)(=O)N3CCOCC3)cc2)csc1=Nc1ccccc1 | 1.52 µM |
| CC(C)C1C(=O)N(Cc2cn(CCC3OCCO3)nn2)CCS(=O)(=O)N1Cc1ccc(-c2ccc(Cl)cc2)cc1 (stereo unspecified) | 2.13 µM |
| O=C(/C=C/c1ccc(OCc2ccccc2)c(OCc2ccccc2)c1)c1cccnc1 | 5.19 µM |
| CCCC(=O)NC(c1ccccc1)c1ccc2cccnc2c1O (stereo unspecified) | 1.99 µM |
| CCCCCn1c(=O)c(C(=O)NC(C)c2ccccc2)c(O)c2ccccc21 (stereo unspecified) | 11.7 µM |
| CC1=C(C(=O)NC2CCCc3c2cnn3-c2cccc(C)c2C)OCCO1 (stereo unspecified) | 3.49 µM |
| COc1ccc(CC2(CO)CCN(CC3=Cc4cc(Cl)ccc4OC3)CC2)cc1 | 1.33 µM |
| CCCCOc1ccc(Br)cc1CSC(=N)N | 1.37 µM |
| CCc1ccc(OCC(=O)NC(NC(=S)Nc2ccc(Cl)cc2)C(Cl)(Cl)Cl)cc1 (stereo unspecified) | 4.96 µM |
| C=CCNc1nc(N2CCOCC2)c(C#N)c2c1CN(C)CC2 | > 70 µM (inactive) |
| CCN(CC)S(=O)(=O)c1cc(NC(=O)CNc2cccc(S(=O)(=O)N3CCCC3)c2)ccc1C | 0.648 µM |
| CC(C)c1nnc(NC(=O)CCS(=O)(=O)c2nc(-c3cccs3)cc(C(F)(F)F)n2)s1 | 3.02 µM |
| COc1cc2cc(C(=O)N3CC(COS(C)(=O)=O)c4ccc(O)cc43)[nH]c2c(OC)c1OC (stereo unspecified) | < 0.26 µM |
| O=S(=O)(c1ccc(Cl)cc1)N1CCN(Cc2ccc(O)c3ncccc23)CC1 | 3.01 µM |
| O=C(CSc1nnc(-c2ccc(Cl)cc2Cl)n1C1CCCCC1)N1CCCC1 | > 70 µM (inactive) |

| Structure (SMILES) | AC50 |
| --- | --- |
| O=C1C=CC(O)(c2cc(=O)c3c(O)cc(O)cc3o2)C=C1 | 5.12 µM |
| COc1ccc(-c2coc3c(C(=O)NCc4ccc(OC)c(OC)c4)cccc23)c(C)c1 | 0.722 µM |
| Cc1ccc(CNC(=O)c2ccc3c(=O)c(O)c(-c4ccc(C)cc4)[nH]c3c2)cc1 | 2.82 µM |
| C=C1C(=O)[C@]23C[C@H]1CCC2[C@@]1(C)C(C[C@@H]3O)[C@](C)(C(=O)OC)CC[C@@H]1O (stereo partly specified) | 2.58 µM |
| CC1(C)CC2CC(C)(CN2c2ncnc3ccc(Br)cc23)C1 (stereo unspecified) | 2.11 µM |
| Cc1cccnc1CN1CCN(C(=O)c2cc(COc3ccc4ncccc4c3)on2)CC1 | 2.1 µM |
| CCc1ccc(Nc2n[n+](-c3ccccc3)c(-c3c(Cl)cccc3Cl)s2)cc1 | 5.4 µM |
| Cc1cc(Cl)n2c(nc3cc(F)c(F)cc32)c1C#N | 3.56 µM |
| Cc1cc(C)c(CN2CCN(C(=O)Cn3cnc4c(NCc5ccccc5)ncnc43)CC2)c(C)c1 | 0.417 µM |
| Cc1ccc(NS(=O)(=O)c2ccc(C(=O)NC3CCN(Cc4ccccc4)CC3)cc2)cc1 | 4.69 µM |
| CCc1ccc(CNCc2ccc(OCC(O)CN(C)Cc3ccccc3)cc2)nc1 (stereo unspecified) | 4.43 µM |
| Cc1nc(N2CCN(C(=O)c3ccco3)CC2)c2c3c(sc2n1)CC(C)CC3 (stereo unspecified) | 2.33 µM |
| CC(C)C[C@H]1CN=C(N(C)C)N1CC1CCCCCC1 | 5.03 µM |
| O=C(OCc1ccccc1)N(CCCCN(CCCNCc1ccccc1)C(=O)OCc1ccccc1)CCCNCc1ccccc1 | 5.36 µM |
| Cc1cc(C(=O)NNS(=O)(=O)c2cc(C(=O)O)ccc2Cl)c(C)n1-c1ccccc1 | 25.7 µM |
| CC(C)(C)C(=O)/C(=C/c1ccncc1)n1cncn1 | 3.27 µM |
| COC(=O)C1=C(c2ccc(OCc3ccccc3)cc2)C[C@@H]2CC[C@H]1N2C(=O)NCc1ccc(C(C)(C)C)cc1 | 6.84 µM |
| O=C1CCCN2N=C(SCC(=O)Nc3cccc(C(F)(F)F)c3)SC2=N1 | 4.37 µM |
| CCOc1ccc(N2C(=O)CC(Sc3nnnn3-c3ccccc3)C2=O)cc1 (stereo unspecified) | 11.5 µM |
| O=C(c1ccc(F)cc1)C(CN1CCOCC1)c1ccccc1 (stereo unspecified) | 17.6 µM |
| CCN(CC)S(=O)(=O)c1cccc(NC(=O)CNc2cccc(S(=O)(=O)N3CCOCC3)c2)c1 | 0.865 µM |
| CC(C)(C)c1ccc(C(=O)NCCCN2CCN(CCCNC(=O)c3ccc(C(C)(C)C)cc3)CC2)cc1 | 4.84 µM |

| Structure (SMILES) | AC50 |
| --- | --- |
| Oc1c(Cl)cc(CN2CCOCC2)c2cccnc12 | 2.43 µM |
| OC(c1cc(-c2cccc(Cl)c2)nc2ccccc12)C1CCCCN1 (stereo unspecified) | 10.8 µM |
| Cc1ccc(S(=O)(=O)N2C[C@@H]3CCCC[C@@H]3[C@@H](C)[C@H]2c2cn(Cc3ccccc3)c3ncccc23)cc1 | 1.92 µM |
| COc1ccc(/C=C/C(=O)c2ccc(C(=O)/C=C/c3ccc(OC)c(OC)c3)cc2)cc1OC | 5.18 µM |
| Cn1nc(-c2ccc(OCC(=O)N3CCN(Cc4ccccc4)CC3)cc2)c2ccccc2c1=O | 2.1 µM |
| CCCNC(=O)c1nnsc1S(=O)c1ccc(Cl)cc1 (stereo unspecified) | 1.26 µM |
| CCS(=O)(=O)c1ncc(Cl)c(C(=O)Nc2ccc(S(=O)(=O)N3CCCC(C)C3)cc2)n1 (stereo unspecified) | < 0.26 µM |
| CC(CCCC(C)(C)O)NC(=O)c1cc(COc2ccc3ncccc3c2)on1 (stereo unspecified) | 1.75 µM |
| Fc1ccc(-n2nnnc2-c2cnc(-c3cccs3)nc2C(F)(F)F)cc1 | 4.44 µM |
| CC1=NOC(=O)/C1=C\c1ccc(-c2ccccc2Br)o1 | 6.48 µM |
| CCN1CCN(Cc2ccc(NC(=O)c3cc(NC(=O)c4cncc(-c5cccs5)c4)cc(OC)c3)cc2C(F)(F)F)CC1 | 9.68 µM |
| CC1CCC2C(=O)N(c3ccc(Cc4ccncc4)cc3)C(=O)C2C1 (stereo unspecified) | 2.65 µM |
| CC(=O)c1cn(Cc2ccccc2C#N)c2ccccc12 | 0.527 µM |
| Cc1cc(N2CCCCC2)nc(NCc2ccccc2)n1 | 4.01 µM |
| CCn1c(C)nc2cc(-c3nnc(-c4c(-c5ccccc5)noc4C)o3)ccc21 | 5.82 µM |
| Cc1ccc(S(=O)(=O)N2CCN(c3ncnc4sccc34)CC2)cc1 | 2.72 µM |
| O=c1oc2ccccc2c(Cl)c1CN1CCCCC1 | 4.99 µM |
| Cn1c(SCC(=O)N2CCCc3ccccc32)nc2ccccc2c1=O | 3.46 µM |
| O=C1ON=C(c2ccccc2)/C1=C/c1ccc(-c2ccccc2[N+](=O)[O-])o1 | 7.21 µM |
| C[C@H]1COC(=O)[C@H](NC(=O)OCC2c3ccccc3-c3ccccc32)C/C=C\C[C@H](CC(=O)N(CCO)Cc2ccccc2)C(=O)N1 | 6.08 µM |
| CCC(=O)NC(c1ccc(OC)c(OC)c1)c1cc(Cl)c2cccnc2c1O (stereo unspecified) | < 0.26 µM |
| Cc1cccc(CCN2C(N(C)C)=NC[C@@H]2CC(C)C)c1 | 1.45 µM |

| Structure (SMILES) | AC50 |
| --- | --- |
| COc1ccc(CNC(=O)c2nc(S(=O)(=O)Cc3ccccc3)ncc2Cl)cc1 | 0.956 µM |
| Cc1nc2ccc(NS(=O)(=O)c3ccc4c(c3)OCCO4)cc2s1 | 0.635 µM |
| COC(=O)C1=C(c2ccc(-c3ccccc3)c(F)c2)C[C@@H]2CC[C@H]1N2C(=O)NCC1CC1 | 4.32 µM |
| CCc1c(C)nc2cc(-c3ccc(OC)c(OC)c3)nn2c1NCC1CC1 | 5.11 µM |
| Cc1nnc(NC(=O)c2nc(S(=O)(=O)Cc3ccccc3C)ncc2Cl)s1 | 0.812 µM |
| CC(=O)c1c(C)[nH]c(C(=O)COc2cc(C)ccc2C(C)C)c1C | 1.25 µM |
| CCCC(=O)NC(c1ccc(Cl)cc1Cl)c1ccc2cccnc2c1O (stereo unspecified) | 0.638 µM |
| NS(=O)(=O)c1ccc(CNC(=S)NC(=O)c2ccco2)cc1 | 22.9 µM |
| COc1ccc(CC(N)c2csc(NC(=O)Nc3ccc(C(C)C)cc3)n2)cc1 (stereo unspecified) | 5.16 µM |
| O=C(c1ccc(Br)cc1)C(CN1CCOCC1)c1ccccc1 (stereo unspecified) | 9.4 µM |
| Cc1cc(O)c(C(C)C)cc1C1(c2cc(C(C)C)c(O)cc2C)OC(=O)c2ccccc21 | 9.45 µM |
| CS(=O)(=O)c1nc(-c2ccccc2)cc(C(F)(F)F)n1 | 1.53 µM |
| CCOc1cc(/C=C2\CN(CC)C/C(=C\c3ccc(O)c(OCC)c3)C2=O)ccc1O | 2.12 µM |
| Cc1sc2ncnc(NCC(C)(C)N3CCOCC3)c2c1C | 1.36 µM |
| Oc1ccc(-c2csc(Nc3cccc4ccccc34)n2)cc1O | 1.58 µM |
| Cn1c(=O)n(C)c2cc([N+](=O)[O-])c(N3CCN(S(=O)(=O)c4ccc(C(C)(C)C)cc4)CC3)cc21 | 3.53 µM |
| O=C1CC(Sc2nnc(-c3ccccc3O)o2)C(=O)N1c1ccccc1 (stereo unspecified) | 12.9 µM |
| CCCCCOC(=O)c1[nH]c2c(c1C)C(=O)CC(c1ccco1)C2 (stereo unspecified) | 1.49 µM |
